Measured values taken from ChEMBL document CHEMBL1697731, “Cheminformatics analysis of assertions mined from literature that describe drug-induced liver injury in different species” (Chem Res Toxicol, 2010).

Assays:
Hepatotoxicity [1] = test: Literature-mined compound from Fourches et al multi-species drug-induced liver injury (DILI) dataset, effect in non-rodents
Hepatotoxicity [2] = test: Literature-mined compound from Fourches et al multi-species drug-induced liver injury (DILI) dataset, effect in humans; details: human
Hepatotoxicity [3] = test: Literature-mined compound from Fourches et al multi-species drug-induced liver injury (DILI) dataset, effect in rodents; details: rodentia

Molecule	Hepatotoxicity (Hepatotoxicity [1])	Hepatotoxicity (Hepatotoxicity [2])	Hepatotoxicity (Hepatotoxicity [3])	Hepatotoxicity (Hepatotoxicity [1]; Liver)	Hepatotoxicity (Hepatotoxicity [2]; Liver)	Hepatotoxicity (Hepatotoxicity [3]; Liver)
COc1cc2c(cc1O)CC[C@@H]1[C@@H]2CC[C@]2(C)[C@@H](O)CC[C@@H]12 [2-METHOXYESTRADIOL]	no drug-induced liver injury reported	drug-induced liver injury reported	drug-induced liver injury reported			
O=C1CN=C(c2ccccc2)c2cc([N+](=O)[O-])ccc2N1 [NITRAZEPAM]	no drug-induced liver injury reported	no drug-induced liver injury reported	drug-induced liver injury reported			
C=CCC1(CC=C)C(=O)NC(=O)NC1=O [ALLOBARBITAL]	no drug-induced liver injury reported	no drug-induced liver injury reported	drug-induced liver injury reported			
C=CCC1(C(C)C)C(=O)NC(=O)NC1=O [APROBARBITAL]	no drug-induced liver injury reported	no drug-induced liver injury reported	drug-induced liver injury reported			
CC(C)c1nc(CN(C)C(=O)N[C@H](C(=O)N[C@@H](Cc2ccccc2)C[C@H](O)[C@H](Cc2ccccc2)NC(=O)OCc2cncs2)C(C)C)cs1 [RITONAVIR]	no drug-induced liver injury reported	drug-induced liver injury reported	drug-induced liver injury reported			
SPIRAMYCIN	no drug-induced liver injury reported	drug-induced liver injury reported	no drug-induced liver injury reported			
Clc1ccc(C(c2ccccc2Cl)C(Cl)Cl)cc1 (stereo not drawn) [MITOTANE]	drug-induced liver injury reported	drug-induced liver injury reported	no drug-induced liver injury reported			
CC(C)O [ISOPROPYL ALCOHOL]	no drug-induced liver injury reported	no drug-induced liver injury reported	drug-induced liver injury reported			
CC(=O)OCC(CCn1cnc2cnc(N)nc21)COC(C)=O [FAMCICLOVIR]	no drug-induced liver injury reported	drug-induced liver injury reported	no drug-induced liver injury reported			
CC(C)NCC(O)COc1ccc(COCCOC(C)C)cc1 (stereo not drawn) [BISOPROLOL]	no drug-induced liver injury reported	drug-induced liver injury reported	no drug-induced liver injury reported			
POLYETHYLENE GLYCOL	no drug-induced liver injury reported	drug-induced liver injury reported	drug-induced liver injury reported			
C[C@@H](c1ncncc1F)[C@](O)(Cn1cncn1)c1ccc(F)cc1F [VORICONAZOLE]	no drug-induced liver injury reported	drug-induced liver injury reported	no drug-induced liver injury reported			
C=C1/C(=C\C=C2/CCC[C@]3(C)[C@@H]([C@H](C)/C=C/C=C/C(O)(CC)CC)CC[C@@H]23)C[C@@H](O)C[C@@H]1O [SEOCALCITOL]	no drug-induced liver injury reported	drug-induced liver injury reported	no drug-induced liver injury reported			
CC(=O)[C@H]1CC[C@H]2[C@@H]3C=CC4=CC(=O)CC[C@@]4(C)[C@@H]3CC[C@]12C [DYDROGESTERONE]	no drug-induced liver injury reported	drug-induced liver injury reported	drug-induced liver injury reported			
Cc1onc(-c2ccccc2)c1C(=O)N[C@@H]1C(=O)N2[C@@H]1SC(C)(C)[C@@H]2C(=O)[O-].[Na+]	no drug-induced liver injury reported	drug-induced liver injury reported	no drug-induced liver injury reported			
c1ccc(-c2ccc(C(c3ccccc3)n3ccnc3)cc2)cc1 (stereo not drawn) [BIFONAZOLE]	no drug-induced liver injury reported	no drug-induced liver injury reported	drug-induced liver injury reported			
CC(C(=O)O)c1ccc(C(=O)c2cccs2)cc1 (stereo not drawn) [SUPROFEN]	no drug-induced liver injury reported	drug-induced liver injury reported	no drug-induced liver injury reported			
CC(=O)Nc1c(I)cc(I)c(C(=O)[O-])c1I.O.[Na+] [ACETRIZOATE SODIUM]	no drug-induced liver injury reported	no drug-induced liver injury reported	drug-induced liver injury reported			
CC(N)Cc1ccccc1 (stereo not drawn) [AMPHETAMINE]	no drug-induced liver injury reported	drug-induced liver injury reported	drug-induced liver injury reported			

Molecule	Hepatotoxicity (Hepatotoxicity [1])	Hepatotoxicity (Hepatotoxicity [2])	Hepatotoxicity (Hepatotoxicity [3])	Hepatotoxicity (Hepatotoxicity [1]; Liver)	Hepatotoxicity (Hepatotoxicity [2]; Liver)	Hepatotoxicity (Hepatotoxicity [3]; Liver)
Cn1cc([S+](C)[O-])c(=O)c2ccc(F)cc21 (stereo not drawn) [FLOSEQUINAN]	no drug-induced liver injury reported	drug-induced liver injury reported	no drug-induced liver injury reported			
O=C(OC[C@H]1O[C@@H](OC(=O)c2cc(O)c(O)c(OC(=O)c3cc(O)c(O)c(O)c3)c2)[C@H](OC(=O)c2cc(O)c(O)c(OC(=O)c3cc(O)c(O)c(O)c3)c2)[C@@H](OC(=O)c2cc(O)c(O)c(OC(=O)c3cc(O)c(O)c(O)c3)c2)[C@@H]1OC(=O)c1cc(O)c(O)c(OC(=O)c2cc(O)c(O)c(O)c2)c1)c1cc(O)c(O)c(OC(=O)c2cc(O)c(O)c(O)c2)c1 [TANNIC ACID]	drug-induced liver injury reported	no drug-induced liver injury reported	drug-induced liver injury reported			
CNC[C@H](O)[C@@H](O)[C@H](O)[C@H](O)CO [MEGLUMINE]	no drug-induced liver injury reported	drug-induced liver injury reported	no drug-induced liver injury reported			
O=c1[nH]cnc2c1ncn2[C@H]1CC[C@@H](CO)O1 [DIDANOSINE]	no drug-induced liver injury reported	drug-induced liver injury reported	drug-induced liver injury reported			
CC(=O)N(O)CCCCCNC(=O)CCC(=O)N(O)CCCCCNC(=O)CCC(=O)N(O)CCCCCN [DEFEROXAMINE]	drug-induced liver injury reported	drug-induced liver injury reported	drug-induced liver injury reported			
O=P(O)(O)OC[C@H]1O[C@@](O)(COP(=O)(O)O)[C@@H](O)[C@@H]1O [FRUCTOSE 1,6-DIPHOSPHATE]	no drug-induced liver injury reported	drug-induced liver injury reported	drug-induced liver injury reported			
Clc1cccc(Cl)c1N=C1NCCN1 [CLONIDINE]				no drug-induced liver injury reported	drug-induced liver injury reported	drug-induced liver injury reported
COc1ccc2c3c1O[C@H]1C(=O)CC[C@@]4(O)[C@@H](C2)N(C)CC[C@]314.Cl [OXYCODONE HYDROCHLORIDE]				no drug-induced liver injury reported	no drug-induced liver injury reported	drug-induced liver injury reported
CC/C(=C(/CC)c1ccc(O)cc1)c1ccc(O)cc1 [DIETHYLSTILBESTROL]	drug-induced liver injury reported	drug-induced liver injury reported	drug-induced liver injury reported			
NC(=O)c1ccc[n+]([C@@H]2O[C@H](COP(=O)([O-])OP(=O)(O)OC[C@H]3O[C@@H](n4cnc5c(N)ncnc54)[C@H](O)[C@@H]3O)[C@@H](O)[C@H]2O)c1 [NADIDE]	no drug-induced liver injury reported	no drug-induced liver injury reported	drug-induced liver injury reported			
O=C1[C@H](CC[C@H](O)c2ccc(F)cc2)[C@@H](c2ccc(O)cc2)N1c1ccc(F)cc1 [EZETIMIBE]	drug-induced liver injury reported	drug-induced liver injury reported	drug-induced liver injury reported			
CCCCc1nc(Cl)c(CO)n1Cc1ccc(-c2ccccc2-c2nn[nH]n2)cc1 [LOSARTAN]	no drug-induced liver injury reported	drug-induced liver injury reported	drug-induced liver injury reported			
C=CCOc1ccccc1OCC(O)CNC(C)C (stereo not drawn) [OXPRENOLOL]				drug-induced liver injury reported	no drug-induced liver injury reported	no drug-induced liver injury reported
CC(Cc1ccc(O)c(O)c1)C(C)Cc1ccc(O)c(O)c1 (stereo not drawn) [NORDIHYDROGUAIARETIC ACID]	no drug-induced liver injury reported	drug-induced liver injury reported	drug-induced liver injury reported			
Cc1ncc(CO)c(CO)c1O [PYRIDOXINE]				no drug-induced liver injury reported		drug-induced liver injury reported
C[C@]12CCC(=O)C=C1CC[C@@H]1[C@@H]2CC[C@@]2(C)[C@H]1CC[C@]2(C)O (stereo in doubt; form 2) [METHYLTESTOSTERONE]		drug-induced liver injury reported				
CCN(CC)CCOc1ccc(C(=C(Cl)c2ccccc2)c2ccccc2)cc1 (stereo in doubt; form 2) [CLOMIPHENE]		no drug-induced liver injury reported	drug-induced liver injury reported			
NCC(=O)O [GLYCINE]				drug-induced liver injury reported		drug-induced liver injury reported
CC(=O)[C@H]1CC[C@H]2[C@@H]3CCC4=CC(=O)CC[C@]4(C)[C@H]3CC[C@]12C (stereo in doubt; form 2) [PROGESTERONE]	no drug-induced liver injury reported		no drug-induced liver injury reported			
